The values below come from EPA's ToxValDB 9.5 (doi:10.2903/j.efsa.2014.3540).

Bounds are passed on as bounds.

One series concerns Apis mellifera. The note with it: acute, duration: 48 hours, mortality.
In another series the test system is Colinus virginianus. The note with it: for LD50: acute, oral, mortality.
The next series deals with Daphnia magna. The note with it: chronic/long-term; duration: 21 days; reproduction.
Another series concerns Landoltia sp. The note with it: acute; duration: 7 days; growth.
A further series concerns Oncorhynchus mykiss. Conditions: chronic/long-term; duration: 96 days; mortality.
A further series deals with Oryctolagus sp. The note with it: developmental; development.
The test system of another series is Rattus norvegicus. Conditions: for NOAEL: chronic.
For the next series, the system named is Tagia sp. The note with it: acute; duration: 14 days; mortality.

The term NOAEL denotes the highest tested level that showed no adverse finding. Take `Cc1c(C(=O)c2c[nH]n(C)c2=O)ccc(S(C)(=O)=O)c1C1=NOCC1` [Topramezone]: the LD50 is greater than 100 µg/piece with Apis mellifera (dermal); greater than 72 µg/piece with Apis mellifera (oral, unspecified); greater than 1080 mg/kg-day in the series on Colinus virginianus (diet); greater than 2000 mg/kg-day in the series with Colinus virginianus; greater than 2000 mg/kg-day with Rattus norvegicus (acute, oral, mortality). Besides, in the series on Colinus virginianus (reproduction developmental, reproduction), the NOEL is 19.4 mg/kg-day. For the same compound, the NOEC was 50 mg/L in the series on Daphnia magna and 0.001 mg/L in the series on Landoltia sp.. In addition, the NOAEC with Oncorhynchus mykiss came to 3.2 mg/L. Besides, the NOAEL came out at 0.5 mg/kg-day with Oryctolagus sp.; 0.4 mg/kg-day in the series on Rattus norvegicus (F); 0.3 mg/kg-day in the series on Rattus norvegicus (M); 0.4 mg/kg-day in the series with Rattus norvegicus (duration: 2 years, F, histopathology: neoplastic). The LC50 in the series on Tagia sp. was greater than 1000 mg/kg.
